Legend:
[1] = Solvency of solvents for (S)-Equol, visual check for crystals after storage; assay type: physicochemical; conditions: solute (S)-Equol, 6% test solution, approximately 1:16 solute to solvent ratio, soluble = no visible crystals
Procedure: (§1) In the testing provided below, “soluble” (or “solubilize”), in relation to the solubility of a solid solute being tested, means that no visible crystals may be seen after a prescribed storage period at a storage condition. The storage period can vary. Suitable storage periods include about 24 hours, about 1 week, and about 30 days. Suitable storage conditions include ambient conditions or cold storage at 5° C. (approximately 1 atm). In certain embodiments, solubility may be determined after a 24 hour storage period at ambient conditions. In other embodiments, solubility may be determined after 20 days in cold storage. Other testing parameters may include storage for prolonged time periods (e.g., 30 day, 50 days, 60 days, 90 days) and at variable temperatures (e.g., 5° C., 50° C.).
The solvency of an isosorbide diester within the scope of the present invention was tested against two conventional, industry standard solvents. […] A test solution was of 6% Equol is prepared with heating to 70° C. Upon reaching 70° C., the examples may be mixed for about 10 minutes. Place mixtures in a covered vial and cool to the storage temperature. Solubility is evaluated for samples stored 24 hours at ambient conditions. Solubility is also evaluated for samples stored for 7 day at 5° C. followed by equilibration to ambient conditions.

[2] = Solvency of solvents for tetrahydrocurcuminoids (THC), visual check for crystals after storage; conditions: solute tetrahydrocurcuminoids (THC), 3% test solution, approximately 1:32 solute to solvent ratio, soluble = no visible crystals
[3] = Solvency of solvents for hexylresorcinol, visual check for crystals after storage; assay type: physicochemical; conditions: solute hexylresorcinol, 33.5% test solution, approximately 1:2 solute to solvent ratio, soluble = no visible crystals
Procedure: as §1
The solvency of an isosorbide diester within the scope of the present invention was tested against two conventional, industry standard solvents. […] A test solution of 33.5% hexylresorcinol is prepared with heating to 70° C. Upon reaching 70° C., the examples may be mixed for about 10 minutes. Place mixtures in a covered vial and cool to the storage temperature. Solubility is evaluated for samples stored 24 hours at ambient conditions. Solubility is also evaluated for samples stored for 7 day at 5° C. followed by equilibration to ambient conditions.

[4] = then equilibration to ambient conditions

CCCCCCCCCCCC(=O)N(C)CC(=O)OC(C)C [Isopropyl lauroyl sarcosinate, isopropyl lauroyl sarcosinate]
Soluble: Solubility, 24 hour rest at Ambient Conditions ([1]; heated to 70° C.) | Solubility, 7 day storage at 5° C. [1, 4] | Solubility, 24 hour rest at Ambient Conditions ([2]; heated to 70° C.) | Solubility, 7 day storage at 5° C. [2, 4] | Solubility, 24 hour rest at Ambient Conditions ([3]; heated to 70° C.) | Solubility, 7 day storage at 5° C. [3, 4]

From US20180344856A1, “COMPOSITIONS AND/OR ARTICLES WITH IMPROVED SOLUBILITY OF A SOLID ACTIVE” (The Procter & Gamble Company, priority 2012, published 2018)
